In patent US9365574B2, “Soluble guanylate cyclase activators” (Merck Sharp & Dohme Corp., priority 2010, dated 2016):

System: Spontaneously hypertensive rats (SHR)
Test: Acute Efficacy in Spontaneously Hypertensive Rats (SHR), telemetry blood pressure
Assay type: in vivo, rat
Conditions: dose 0.3 mpk
Source text: Acute Efficacy in Spontaneously Hypertensive Rats (SHR)
Spontaneously hypertensive rats (SHR, male, Charles River) were implanted with DSI TA11PA-C40 telemetry device (Data Sciences, Inc., St. Paul, Minn.) under isoflurane or ketamine/metomidine anesthesia. The telemetry unit catheter was inserted into the descending aorta via the femoral artery and the telemetry device was implanted subcutaneously in the left flank area. Animals were allowed to recover from surgery for 14 days before the start of any studies. Blood pressure, heart rate, and activity signals from conscious, freely moving rats were recorded continuously for 30 seconds every 10 minutes. On the day prior to administration of compound, a single oral dose of vehicle (10% transcutol/20% Cremophor/70% water) was administered to all animals to establish baseline control data. The blood pressure lowering efficacy of compound (PO) or vehicle was evaluated following a single oral gavage. Data were collected as hourly averages, and changes in blood pressure were calculated by subtracting control baseline data on an hourly basis. Animals were maintained on normal diet with a 12 hour light-dark cycle.
Maximum peak decreases of systolic blood pressure (SBP) in SHR at a particular P.O. dose (mpk milligrams per kilogram) for the following representative compounds are provided.

| Structure (SMILES) | Maximum SBP reduction [mmHg] |
| --- | --- |
| CC1(C(N)=O)C(=O)Nc2nc(-c3nn(CCC(F)(F)C(F)(F)F)c4cc(Cl)ccc34)nc(N)c21 (single isomer, unassigned) [Example 159, 4-Amino-2-[6-Chloro-1-(3,3,4,4,4-Pentafluorobutyl)-1H-Indazol-3-yl]-5-Methyl-6-Oxo-6,7-Dihydro-5H-Pyrrolo[2,3-D]Pyrimidine-5-Carboxamide] | 38 ± 6 |

Same assay, conditions: dose 1.0 mpk

| Structure (SMILES) | Maximum SBP reduction [mmHg] |
| --- | --- |
| COc1ccc2c(-c3nc(N)c4c(n3)NC(=O)C4(C)C(=O)NC3CC3)nn(CCC(F)(F)F)c2n1 (centres unmarked) [Example 185, 4-Amino-N-Cyclopropyl-2-[6-Methoxy-1-(3,3,3-Trifluoropropyl)-1H-Pyrazolo[3,4-B]Pyridin-3-yl]-5-Methyl-6-Oxo-6,7-Dihydro-5H-Pyrrolo[2,3-D]Pyrimidine-5-Carboxamide] | 43 ± 7 |

Same assay, conditions: single oral dose 0.1 mpk P.O.

| Structure (SMILES) | Maximum peak decrease of systolic blood pressure (SBP) in SHR, Category |
| --- | --- |
| CC1(C(=O)NC2CC2)C(=O)Nc2nc(-c3nn(CCC(F)(F)C(F)(F)F)c4ncc(Cl)cc34)nc(N)c21 (centres unmarked) [Example 268, 4-amino-2-[5-chloro-1-(3,3,4,4,4-pentafluorobutyl)-1H-pyrazolo[3,4-b]pyridin-3-yl]-N-cyclopropyl-5-methyl-6-oxo-6,7-dihydro-5H-pyrrolo[2,3-d]pyrimidine-5-carboxamide] | B (Category B=SBP in SHRs 25-40 mmHg) |

Same assay, conditions: single oral dose 0.3 mpk P.O.

| Structure (SMILES) | Maximum peak decrease of systolic blood pressure (SBP) in SHR, Category |
| --- | --- |
| CC1(C(=O)NC2CC2)C(=O)Nc2nc(-c3nn(CCC(F)(F)C(F)(F)F)c4cc(F)ccc34)nc(N)c21 (centres unmarked) [Example 195, 4-amino-N-cyclopropyl-2-[6-fluoro-1-(3,3,4,4,4-pentafluorobutyl)-1H-indazol-3-yl]-5-methyl-6-oxo-6,7-dihydro-5H-pyrrolo[2,3-d]pyrimidine-5-carboxamide] | C (Category C=SBP in SHRs>40 mmHg) |
| Cc1nnc(C2(C)C(=O)Nc3nc(-c4nn(CCC(F)(F)C(F)(F)F)c5ncc(Cl)cc45)nc(N)c32)o1 (centres unmarked) [Example 269, 4-amino-2-[5-chloro-1-(3,3,4,4,4-pentafluorobutyl)-1H-pyrazolo[3,4-b]pyridin-3-yl]-5-methyl-5-(5-methyl-1,3,4-oxadiazol-2-yl)-5,7-dihydro-6H-pyrrolo[2,3-d]pyrimidin-6-one] | C (Category C=SBP in SHRs>40 mmHg) |
| CCc1nnc(C2(C)C(=O)Nc3nc(-c4nn(CCC(F)(F)C(F)(F)F)c5ncccc45)nc(N)c32)o1 (centres unmarked) [Example 211, 4-amino-5-(5-ethyl-1,3,4-oxadiazol-2-yl)-5-methyl-2-[1-(3,3,4,4,4-pentafluorobutyl)-1H-pyrazolo[3,4-b]pyridin-3-yl]-5,7-dihydro-6H-pyrrolo[2,3-d]pyrimidin-6-one] | C (Category C=SBP in SHRs>40 mmHg) |
| CC1(c2nc(C(F)(F)F)no2)C(=O)Nc2nc(-c3nn(CCC(F)(F)C(F)(F)F)c4ncccc34)nc(N)c21 (centres unmarked) [Example 207, 4-amino-5-methyl-2-[1-(3,3,4,4,4-pentafluorobutyl)-1H-pyrazolo[3,4-b]pyridin-3-yl]-5-[3-(trifluoromethyl)-1,2,4-oxadiazol-5-yl]-5,7-dihydro-6H-pyrrolo[2,3-d]pyrimidin-6-one] | C (Category C=SBP in SHRs>40 mmHg) |
| CNC(=O)C1(C)C(=O)Nc2nc(-c3nn(CCC(F)(F)C(F)(F)F)c4cc(Cl)ccc34)nc(NC)c21 (centres unmarked) [Example 258, 2-[6-chloro-1-(3,3,4,4,4-pentafluorobutyl)-1H-indazol-3-yl]-N,5-dimethyl-4-(methylamino)-6-oxo-6,7-dihydro-5H-pyrrolo[2,3-d]pyrimidine-5-carboxamide] | A (Category A=SBP in SHRs<25 mmHg) |
| CC1(C(N)=O)C(=O)Nc2nc(-c3nc(CCC(F)(F)C(F)(F)F)c4ccccn34)nc(N)c21 (centres unmarked) [Example 270, 4-amino-5-methyl-6-oxo-2-[1-(3,3,4,4,4-pentafluorobutyl)imidazo[1,5-a]pyridin-3-yl]-6,7-dihydro-5H-pyrrolo[2,3-d]pyrimidine-5-carboxamide] | A (Category A=SBP in SHRs<25 mmHg) |
| CNc1nc(-c2nn(CCC(F)(F)C(F)(F)F)c3ncccc23)nc2c1C(C)(c1nnc(C)o1)C(=O)N2 (centres unmarked) [Example 189, 5-Methyl-4-(Methylamino)-5-(5-Methyl-1,3,4-Oxadiazol-2-yl)-2-[1-(3,3,4,4,4-Pentafluorobutyl)-1H-Pyrazolo [3,4-B]Pyridin-3-yl]-5,7-Dihydro-6H-Pyrrolo[2,3-D]Pyrimidin-6-One] | C (Category C=SBP in SHRs>40 mmHg) |
| CC1(C(N)=O)C(=O)Nc2nc(-c3nn(CCC(F)(F)C(F)(F)F)c4cc(Cl)ccc34)nc(N)c21 (single isomer, unassigned) [Example 159, 4-Amino-2-[6-Chloro-1-(3,3,4,4,4-Pentafluorobutyl)-1H-Indazol-3-yl]-5-Methyl-6-Oxo-6,7-Dihydro-5H-Pyrrolo[2,3-D]Pyrimidine-5-Carboxamide] | B (Category B=SBP in SHRs 25-40 mmHg) |
| CCOC(=O)NC1(C)C(=O)Nc2nc(-c3nn(CCC(F)(F)C(F)(F)F)c4cc(Cl)ccc34)nc(N)c21 (centres unmarked) [Example 166, Ethyl (4-Amino-2-(6-Chloro-1-(3,3,4,4,4-Pentafluorobutyl)-1H-Indazol-3-yl)-5-Methyl-6-Oxo-6,7-Dihydro-5H-Pyrrolo[2,3-D]Pyrimidin-5-yl)Carbamate] | A (Category A=SBP in SHRs<25 mmHg) |
| Cn1cc(NC(=O)C2(C)C(=O)Nc3nc(-c4nn(CCC(F)(F)C(F)(F)F)c5cc(Cl)ccc45)nc(N)c32)cn1 (centres unmarked) [Example 217, 4-amino-2-[6-chloro-1-(3,3,4,4,4-pentafluorobutyl)-1H-indazol-3-yl]-5-methyl-N-(1-methyl-1H-pyrazol-4-yl)-6-oxo-6,7-dihydro-5H-pyrrolo[2,3-d]pyrimidine-5-carboxamide] | C (Category C=SBP in SHRs>40 mmHg) |
| CC(C)C1(C(N)=O)C(=O)Nc2nc(-c3nn(CCC(F)(F)C(F)(F)F)c4ncccc34)nc(N)c21 (centres unmarked) [Example 244, 4-amino-5-(1-methylethyl)-6-oxo-2-(1-(3,3,4,4,4-pentafluorobutyl)-1H-pyrazolo[3,4-b]pyridin-3-yl]-6,7-dihydro-5H-pyrrolo[2,3-d]pyrimidine-5-carboxamide] | C (Category C=SBP in SHRs>40 mmHg) |
| CC(C)n1nc(C2(C)C(=O)Nc3nc(-c4nn(CCC(F)(F)C(F)(F)F)c5cc(Cl)ccc45)nc(N)c32)oc1=O (centres unmarked) [Example 171, 4-Amino-2-[6-Chloro-1-(3,3,4,4,4-Pentafluorobutyl)-1H-Indazol-3-yl]-5-Methyl-5-[5-Oxo-4-(Propan-2-yl)-4,5-Dihydro-1,3,4-Oxadiazol-2-yl]-5,7-Dihydro-6H-Pyrrolo[2,3-D]Pyrimidin-6-One] | C (Category C=SBP in SHRs>40 mmHg) |
| CC1(C(=O)Nc2cccnc2)C(=O)Nc2nc(-c3nn(CCC(F)(F)C(F)(F)F)c4ncccc34)nc(N)c21 (centres unmarked) [Example 234, 4-amino-5-methyl-6-oxo-2-[1-(3,3,4,4,4-pentafluorobutyl)-1H-pyrazolo[3,4-b]pyridin-3-yl]-N-pyridin-3-yl-6,7-dihydro-5H-pyrrolo[2,3-d]pyrimidine-5-carboxamide] | C (Category C=SBP in SHRs>40 mmHg) |
| CC1(C(=O)NC2CC2)C(=O)Nc2nc(-c3nn(CCOC(F)(F)F)c4ncccc34)nc(N)c21 (centres unmarked) [Example 200, 4-amino-N-cyclopropyl-5-methyl-6-oxo-2-{1-[2-(trifluoromethoxy)ethyl]-1H-pyrazolo[3,4-6]pyridin-3-yl}-6,7-dihydro-5H-pyrrolo[2,3-d]pyrimidine-5-carboxamide] | C (Category C=SBP in SHRs>40 mmHg) |
| Cn1ccc(NC(=O)C2(C)C(=O)Nc3nc(-c4nn(CCOC(F)(F)F)c5ncccc45)nc(N)c32)n1 (centres unmarked) [Example 210, 4-amino-5-methyl-N-(1-methyl-1H-pyrazol-3-yl)-6-oxo-2-{1-[2-(trifluoromethoxy)ethyl]-1H-pyrazolo[3,4-b]pyridin-3-yl}-6,7-dihydro-5H-pyrrolo[2,3-d]pyrimidine-5-carboxamide] | B (Category B=SBP in SHRs 25-40 mmHg) |

Same assay, conditions: single oral dose 1 mpk P.O.

| Structure (SMILES) | Maximum peak decrease of systolic blood pressure (SBP) in SHR, Category |
| --- | --- |
| COc1ccc2c(-c3nc(N)c4c(n3)NC(=O)C4(C)C(=O)NC3CC3)nn(CCC(F)(F)F)c2n1 (centres unmarked) [Example 185, 4-Amino-N-Cyclopropyl-2-[6-Methoxy-1-(3,3,3-Trifluoropropyl)-1H-Pyrazolo[3,4-B]Pyridin-3-yl]-5-Methyl-6-Oxo-6,7-Dihydro-5H-Pyrrolo[2,3-D]Pyrimidine-5-Carboxamide] | C (Category C=SBP in SHRs>40 mmHg) |
| COc1ccc2c(-c3nc(N)c4c(n3)NC(=O)C4(C)C(N)=O)nn(CCC(F)(F)C(F)(F)F)c2n1 (centres unmarked) [Example 220, 4-amino-2-[6-methoxy-1-(3,3,4,4,4-pentafluorobutyl)-1H-pyrazolo[3,4-b]pyridin-3-yl]-5-methyl-6-oxo-6,7-dihydro-5H-pyrrolo[2,3-d]pyrimidine-5-carboxamide] | B (Category B=SBP in SHRs 25-40 mmHg) |
| CN(C)C(=O)C1(C)C(=O)Nc2nc(-n3nc(CCC(F)(F)C(F)(F)F)c4cc(Cl)ccc43)nc(N)c21 (centres unmarked) [Example 265, 4-amino-2-[5-chloro-3-(3,3,4,4,4-pentafluorobutyl)-1H-indazol-1-yl]-N,N,5-trimethyl-6-oxo-6,7-dihydro-5H-pyrrolo[2,3-d]pyrimidine-5-carboxamide] | C (Category C=SBP in SHRs>40 mmHg) |
| Nc1nc(-c2nn(CCC(F)(F)C(F)(F)F)c3ncccc23)nc2c1C(C(=O)NC1CC1)(C1CCCC1)C(=O)N2 (centres unmarked) [Example 243, 4-amino-5-cyclopentyl-N-cyclopropyl-6-oxo-2-[1-(3,3,4,4,4-pentafluorobutyl)-1H-pyrazolo[3,4-b]pyridin-3-yl]-6,7-dihydro-5H-pyrrolo[2,3-d]pyrimidine-5-carboxamide] | B (Category B=SBP in SHRs 25-40 mmHg) |
| Cn1cc(C2(C)C(=O)Nc3nc(-c4nn(CCC(F)(F)C(F)(F)F)c5cc(Cl)ccc45)nc(N)c32)cn1 (centres unmarked) [Example 229, 4-amino-2-[6-chloro-1-(3,3,4,4,4-pentafluorobutyl)-1H-indazol-3-yl]-5-methyl-5-(1-methyl-1H-pyrazol-4-yl)-5,7-dihydro-6H-pyrrolo[2,3-d]pyrimidin-6-one] | C (Category C=SBP in SHRs>40 mmHg) |
